Laboratory results from patent US11306337B2, “Polypeptides having hydrolytic activity on 1-kestose in the presence of sucrose but lacking sucrase (invertase) activity, polynucleotides encoding same and methods of producting and using same in industrial sucrose production from 1-kestose” (CTC—Centro de Tecnologia Canavieira S.A., priority 2015, dated 2022).

T1: Saccharomyces cerevisiae invertase (Saccharomyces cerevisiae, UniProt P00724)
T1 sequence (P00724 20-532): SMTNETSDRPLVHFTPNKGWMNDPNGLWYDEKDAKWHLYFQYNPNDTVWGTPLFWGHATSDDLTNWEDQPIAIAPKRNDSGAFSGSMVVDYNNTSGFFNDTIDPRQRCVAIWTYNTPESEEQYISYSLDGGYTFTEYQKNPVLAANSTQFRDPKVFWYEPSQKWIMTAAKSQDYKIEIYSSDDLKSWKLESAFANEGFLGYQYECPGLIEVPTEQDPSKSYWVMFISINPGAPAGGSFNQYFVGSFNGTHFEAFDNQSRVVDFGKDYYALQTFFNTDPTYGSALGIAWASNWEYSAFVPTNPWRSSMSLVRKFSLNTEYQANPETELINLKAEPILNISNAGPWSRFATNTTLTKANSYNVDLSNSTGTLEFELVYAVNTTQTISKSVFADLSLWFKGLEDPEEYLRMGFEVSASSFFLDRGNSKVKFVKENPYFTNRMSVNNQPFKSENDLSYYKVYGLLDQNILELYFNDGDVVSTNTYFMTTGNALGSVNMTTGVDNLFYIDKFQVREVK


How the values were obtained:
[1] = target: T1, Saccharomyces cerevisiae invertase; settings: cited from earlier work; for Activity: substrate hydrolysed by S. cerevisiae invertase, Sainz-Polo et al., 2013; for Activity of S. cerevisiae invertase with the oligosaccharide as substrate: Sainz-Polo et al. 2013
[2] = cited from earlier work
[3] = Sucrose inhibition assay of 1-kestose hydrolysis by partially purified recombinant 1-FEH targets (HPAEC-PAD, fructose released); type: biochemical; settings: 380 mM sucrose; 10 mM 1-kestose, 1 hour, 30° C., pH6.0
Experimental: The enzymes A, B, C and D were expressed in Pichia pastoris KM71H strain with a fusion GFP protein at C-terminal in 300 mL of culture media. After 48-hour induction with 0.5% (v/v) […] of methanol, the recombinant proteins were partially purified by precipitation with ammonium sulphate at 70% of saturation, followed by solubilization with sodium phosphate buffer 50 mM pH6.0. The partially purified proteins were concentrated and analyzed by SDS-PAGE and blue-light transluminator for GFP fluorescence. The enzymatic activity assays of the partially purified enzymes were evaluated using 10 mM 1-kestose as substrate, 50 uL of enzyme and sucrose as inhibitor ranging from zero to 380 mM, in a 100 μL-reaction buffered with sodium phosphate 50 mM pH6.0. The reactions were carried for 1 hour at 30° C. and stopped by heating at 95° C. for 5 minutes. The reactions were than diluted to 4 mL with ultrapure water and analyzed high-pressure anion-exchange chromatography with pulsed amperometric detection (HPAEC-PAD, Dionex, Sunnyvale, Calif., USA). Enzyme relative activity was determined by the amount of fructose released.
After identifying that the chosen targets are active against 1-kestose but not sucrose, we performed sucrose inhibition studies in which the amount of enzyme and substrate were fixed and increasing concentrations of sucrose were added to the reaction. […]

[4] = 10 mM sucrose, Verhaest et al., 2007

Molecule	Activity [1] [µmol/min/mg]	Activity of S. cerevisiae invertase with the oligosaccharide as substrate [1]	further results
OC[C@H]1O[C@H](OC[C@H]2O[C@H](O[C@]3(CO)O[C@H](CO)[C@@H](O)[C@@H]3O)[C@H](O)[C@@H](O)[C@@H]2O)[C@H](O)[C@@H](O)[C@H]1O [Raffinose]	187 ± 8		
OC[C@H]1O[C@@](CO)(OC[C@@]2(O[C@H]3O[C@H](CO)[C@@H](O)[C@H](O)[C@H]3O)O[C@H](CO)[C@@H](O)[C@@H]2O)[C@@H](O)[C@@H]1O [1-Kestose, β-D-fructofuranosyl-(2→1)-β-D-fructofuranosyl α-D-glucopyranoside]	102 ± 11		
OC[C@H]1O[C@@](CO)(OC[C@@]2(OC[C@@]3(O[C@H]4O[C@H](CO)[C@@H](O)[C@H](O)[C@H]4O)O[C@H](CO)[C@@H](O)[C@@H]3O)O[C@H](CO)[C@@H](O)[C@@H]2O)[C@@H](O)[C@@H]1O [Nystose]	36 ± 1	hydrolyzed at a much lower rate	
OC[C@H]1O[C@@](CO)(O[C@H]2O[C@H](CO)[C@@H](O)[C@H](O)[C@H]2O)[C@@H](O)[C@@H]1O [Sucrose, sucrose]	520 ± 20	highest efficiency	
Inulin	2.5 ± 0.1	No significant activity	
enzyme D: Cichorium intybus 1-FEH IIa with W82 homologue replaced by leucine; also reported by Verhaest et al. 2007 (protein, Fructan 1-exohydrolase precursor (W120L)) QQIEQPYRTGYHFQPPSNWMNDPNGPMLYQGVYHFFYQYNPYAATFGDVIIWGHAVSYDLVNWIHLDPAIYPTQEADSKSCLSGSATILPGNIPAMLYTGSDSKSRQVQDLAWPKNLSDPFLREWVKHPKNPLITPPEGVKDDCFRDPSTAWLGPDGVWRIVVGGDRDNNGMAFLYQSTDFVNWKRYDQPLSSADATGTWECPDFYPVPLNSTNGLDTSVYGGSVRHVMKAGFEGHDWYTIGTYSPDRENFLPQNGLSLTGSTLDLRYDYGQFYASKSFFDDAKNRRVLWAWVPETDSQADDIEKGWAGLQSFPRALWIDRNGKQLIQWPVEEIEELRQNQVNLQNKNLKPGSVLEIHGIAASQADVTISFKLEGLKEAEVLDTTLVDPQALCNERGASSRGALGPFGLLAMASKDLKEQSAIFFRVFQNQLGRYSVLMCSDLSRSTVRSNIDTTSYGAFVDIDPRSEEISLRNLIDHSIIESFGAGGKTCITSRIYPKFVNNEEAHLFVFNNGTQNVKISEMSAWSMKNAKFVVDQSVKSAA			inhibition by sucrose (text) [2, 4]: 0%; inhibition by sucrose (words) [2, 4]: no longer inhibited; % inhibition by sucrose ([2]; 10 mM sucrose): 0% with 10 mM; Sucrose inhibition ([2]; Weak / Strong, Table 3): Weak; inhibition by sucrose as described in the literature ([2]; no sucrose concentration stated): strongly inhibited; inhibition by sucrose [3]: 52%
